Source: patent US20200263231A1, “Fluorogenic dyes for high sensitivity DNA detection” (LIFE TECHNOLOGIES CORPORATION, priority 2016, published 2020)

Experiments:
[1] = tested on: dsDNA; assay: Microplate fluorescence when bound to dsDNA; type: binding; settings: 500 ng/mL dsDNA
Protocol: Compounds were tested in triplicate for fluorescence enhancement when bound to dsDNA. 190 μL of 1 μM compound in 1× Tris-EDTA, pH 7.5, 0.01% CHAPS was added to 10 μL of 4 different concentrations of dsDNA (0, 25 ng/mL, 200 ng/mL, and 500 ng/mL) in wells of 96 well Costar black, clear bottom microplates. Plates were read on a SpectraFluor multifunction microplate reader (Tecan) at 491 nm excitation and 520 nm emission.
Compounds were tested for fluorescence enhancement when bound to dsDNA as described in Example 3. Fluorescence data with dsDNA are shown in FIG. 5 for the different tested compounds.

[2] = UV/VIS absorption spectra; type: physicochemical; settings: 10 μM compound in 50 mM potassium phosphate buffer (pH 7.0)
Protocol: The UV/VIS absorption spectra were obtained with 10 μM compound solution in 50 mM potassium phosphate buffer (pH 7.0) in a final volume of 3 mL. Measurements were carried out using a Lambda 245 spectrophotometer from Perkin Elmer.

[3] = tested on: dsDNA versus ssDNA; assay: In vitro selectivity dsDNA versus ssDNA; type: binding
Protocol: Six compounds (2, 34, 35, 41, 42, and 48) were characterized in in vitro selectivity experiments for double-stranded DNA (dsDNA) versus single-stranded DNA (ssDNA). These compounds were compared against comparative compounds R^1 and R^2.
For each individual compound, the dsDNA and ssDNA fluorescence emission at 10 ng/μL was compared to evaluate in vitro selectivity for dsDNA/ssDNA, as shown in FIG. 4.
Further in vitro selectivity experiments for double-stranded DNA (dsDNA) versus single-stranded DNA (ssDNA) were performed using the methods outlined in Example 3 to compare compounds 2, 34, 41, 42, and 48 to comparative compounds R1 and R2.
For each individual compound, the dsDNA and ssDNA fluorescence emission at 10 ng/μL was calculated to estimate in vitro selectivity, as shown in FIG. 7.

[4] = tested on: calf thymus DNA; assay: Fluorescence emission and enhancement of compounds bound to calf thymus DNA; type: binding; settings: 0.8 μM compound with 500 ng/ml calf thymus DNA in TE buffer; for Emission Max: excited at 488 nm; for Fluorescence Enhancement: emission area 500-715 nm compared to compound 1, defined as 1000-fold
Protocol: Compounds 1-65 were prepared and their fluorescence absorption and emission characteristics were measured. Intrinsic fluorescence of the compounds only (without DNA) was negligible. Emission spectra for the compounds bound to dsDNA were obtained by incubating 0.8 μM compound with 500 ng/ml calf thymus DNA in TE buffer (10 mM Tris-HCl, pH 7.5, 1 mM EDTA) in a final volume of 3 ml. Measurements were made using PerkinElmer LS 55 (F-11) Fluorescence spectrometer. Samples were excited at 488 nm and fluorescence emission was measured with emission slit widths of 2.5 nm. Absorption maxima were determined according to standard techniques.
Fluorescence enhancement measurements of the compounds were obtained by incubating 0.8 μM compound with 500 ng/ml calf thymus DNA with compounds at a final concentration of 0.8 μM in TE buffer. Compound 1 was used as an internal standard to control for variability (e.g., in excitation light intensity). The area-under-curve of fluorescence emission spectra from 500 nm to 715 nm was calculated, and compared to that of compound 1, which was defined as having 1000-fold fluorescence enhancement relative to fluorescence of the compound alone.

[5] = tested on: ssDNA; assay: Microplate fluorescence when bound to ssDNA; type: binding; settings: for Ratio to R1, fluorescent emission with ssDNA / fluorescent emission with ssDNA: 500 ng/mL ssDNA; for ssDNA emission: text says 10 ng/μL
Protocol: The compounds from FIG. 1 were also characterized with respect to their fluorescence enhancement when bound to ssDNA. The compounds from FIG. 1, R1 and R2 were tested in triplicate. 190 μL of 1 μM compound in 1× Tris-EDTA pH7.5, 0.01% CHAPS was added to 10 μL of 4 different concentrations of ssDNA in wells of 96 well Costar black, clear bottom microplates. Plates were read on a SpectraFluor multifunction microplate reader (Tecan) at 491 nm excitation and 520 nm emission. Fluorescence data with ssDNA are shown in FIG. 3 for the different tested compounds.
Next, the compounds were compared for their fluorescence enhancement when bound to ssDNA as described in Example 1. Fluorescence data with ssDNA are shown in FIG. 6 for the different tested compounds.

[6] = Example 3, Table 2, 1 μM compound, 491 nm excitation, 520 nm emission
[7] = Example 3, Table 3, 1 μM compound, 491 nm excitation, 520 nm emission
[8] = Example 3, Table 4, FIG. 4 says 500 ng/mL
[9] = Example 4, Table 7, FIG. 7 says 500 ng/mL

Row | SMILES | Ratio to R1, fluorescent emission with dsDNA ([1]; Example 3, Table 2) | fluorescent emission with dsDNA [1, 6] | Ratio to R1, fluorescent emission with dsDNA ([1]; Example 4, Table 5) | fluorescent emission with dsDNA ([1]; Example 4, Table 5) | Absorbance Max [2] | ratio of dsDNA emission versus ssDNA emission ([3]; Example 3, Table 4) | ratio of dsDNA emission versus ssDNA emission ([3]; Example 4, Table 7) | Emission Max [4] | Fluorescence Enhancement [4] | Ratio to R1, fluorescent emission with ssDNA ([5]; Example 3, Table 3) | fluorescent emission with ssDNA [5, 7] | ssDNA emission [5, 8] | fluorescent emission with ssDNA ([5]; Example 4, Table 6) | ssDNA emission [5, 9]
1 | CCCN(CCC[N+](C)(C)C)C1=CC(=Cc2sc3ccccc3[n+]2C)c2ccccc2N1c1ccccc1.[Cl-].[I-] [Compound 2] | 1.74 | 9494 | 1.8 | 10339 | 501 nm | 5.4 | 5.9 | 523 nm | 964 fold | 1.6 | 1773 | 1773 | 1767 | 1767
2 | CCCCN(CCCN(C)C)C1=CC(=Cc2sc3ccccc3[n+]2C)c2ccc(OC)cc2N1c1ccccc1.[I-] [Compound 34] | 1.92 | 10452 | 2.1 | 12434 | 488 nm | 4.1 | 4.8 | 517 nm | 1071 fold | 2.4 | 2578 | 2578 | 2603 | 2603
3 | CCCCN(CCC[N+](C)(C)C)C1=CC(=Cc2sc3ccccc3[n+]2C)c2ccc(OC)cc2N1c1ccccc1.[I-].[I-] [Compound 35] | 2.05 | 11136 |  |  | 489 nm | 4.4 |  | 518 nm | 1069 fold | 2.3 | 2515 | 2515 |  | 
4 | CCCN(CCCN(C)C)C1=CC(=Cc2sc3ccccc3[n+]2C)c2ccc(OC)cc2N1c1ccccc1.[I-] [Compound 41] | 1.83 | 9936 | 1.9 | 11424 | 493 nm | 3.5 | 4.1 | 517 nm | 1020 fold | 2.7 | 2878 | 2878 | 2814 | 2814
5 | CCCN(CCC[N+](C)(C)C)C1=CC(=Cc2sc3ccccc3[n+]2C)c2ccc(OC)cc2N1c1ccccc1.[I-].[I-] [Compound 42] | 2.00 | 10860 | 2.3 | 13580 | 494 nm | 3.6 | 4.4 | 519 nm | 1070 fold | 2.8 | 3017 | 3017 | 3078 | 3078
6 | CCN(CCCN(C)C)C1=CC(=Cc2sc3ccccc3[n+]2C)c2ccc(OC)cc2N1c1ccccc1.[I-] [Compound 48] | 1.72 | 9350 | 1.9 | 11400 | 489 nm | 3.4 | 4.6 | 520 nm | 1016 fold | 2.5 | 2739 | 2739 | 2477 | 2477
